Structures can show the parent of a compound that is named as a salt. Where two headings read alike, the source gives them in different places.
Legend:
[1] = molecular target: T1, JARID1B (Homo sapiens, UniProt Q9UGL1); experiment: FLAG-JARID1B histone demethylase assay with AlphaScreen detection (HTS and dose response); format: biochemical; conditions: for inhibition at 20 µM: read-out: Inhibitory effect (percent); for Assay − Artifact Signal (percent): assay signal minus artifact signal; for Assay Signal (percent): effect of compound in JARID1B AlphaScreen assay;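 as to Assay Signal (percent): compound tested at 20 µM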;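 as to Assay − Artifact Signal (percent): compound tested at 20 µM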;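 as to all read-outs here: FLAG-tagged JARID1B at 4 nM acting on a biotinylated H3K4me3 peptide, demethylation read by AlphaScreen luminescence, with hits checked against bio-H3K4me2 without enzyme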
T1 construct: The FLAG tagged full length JARID1B enzyme was expressed in Sf21 insect cells using FLAG-JARID1B baculoviruses; FLAG (N); made in house; host or cells: Sf21 insect cells (baculovirus)
T1 sequence (Q9UGL1 whole entry): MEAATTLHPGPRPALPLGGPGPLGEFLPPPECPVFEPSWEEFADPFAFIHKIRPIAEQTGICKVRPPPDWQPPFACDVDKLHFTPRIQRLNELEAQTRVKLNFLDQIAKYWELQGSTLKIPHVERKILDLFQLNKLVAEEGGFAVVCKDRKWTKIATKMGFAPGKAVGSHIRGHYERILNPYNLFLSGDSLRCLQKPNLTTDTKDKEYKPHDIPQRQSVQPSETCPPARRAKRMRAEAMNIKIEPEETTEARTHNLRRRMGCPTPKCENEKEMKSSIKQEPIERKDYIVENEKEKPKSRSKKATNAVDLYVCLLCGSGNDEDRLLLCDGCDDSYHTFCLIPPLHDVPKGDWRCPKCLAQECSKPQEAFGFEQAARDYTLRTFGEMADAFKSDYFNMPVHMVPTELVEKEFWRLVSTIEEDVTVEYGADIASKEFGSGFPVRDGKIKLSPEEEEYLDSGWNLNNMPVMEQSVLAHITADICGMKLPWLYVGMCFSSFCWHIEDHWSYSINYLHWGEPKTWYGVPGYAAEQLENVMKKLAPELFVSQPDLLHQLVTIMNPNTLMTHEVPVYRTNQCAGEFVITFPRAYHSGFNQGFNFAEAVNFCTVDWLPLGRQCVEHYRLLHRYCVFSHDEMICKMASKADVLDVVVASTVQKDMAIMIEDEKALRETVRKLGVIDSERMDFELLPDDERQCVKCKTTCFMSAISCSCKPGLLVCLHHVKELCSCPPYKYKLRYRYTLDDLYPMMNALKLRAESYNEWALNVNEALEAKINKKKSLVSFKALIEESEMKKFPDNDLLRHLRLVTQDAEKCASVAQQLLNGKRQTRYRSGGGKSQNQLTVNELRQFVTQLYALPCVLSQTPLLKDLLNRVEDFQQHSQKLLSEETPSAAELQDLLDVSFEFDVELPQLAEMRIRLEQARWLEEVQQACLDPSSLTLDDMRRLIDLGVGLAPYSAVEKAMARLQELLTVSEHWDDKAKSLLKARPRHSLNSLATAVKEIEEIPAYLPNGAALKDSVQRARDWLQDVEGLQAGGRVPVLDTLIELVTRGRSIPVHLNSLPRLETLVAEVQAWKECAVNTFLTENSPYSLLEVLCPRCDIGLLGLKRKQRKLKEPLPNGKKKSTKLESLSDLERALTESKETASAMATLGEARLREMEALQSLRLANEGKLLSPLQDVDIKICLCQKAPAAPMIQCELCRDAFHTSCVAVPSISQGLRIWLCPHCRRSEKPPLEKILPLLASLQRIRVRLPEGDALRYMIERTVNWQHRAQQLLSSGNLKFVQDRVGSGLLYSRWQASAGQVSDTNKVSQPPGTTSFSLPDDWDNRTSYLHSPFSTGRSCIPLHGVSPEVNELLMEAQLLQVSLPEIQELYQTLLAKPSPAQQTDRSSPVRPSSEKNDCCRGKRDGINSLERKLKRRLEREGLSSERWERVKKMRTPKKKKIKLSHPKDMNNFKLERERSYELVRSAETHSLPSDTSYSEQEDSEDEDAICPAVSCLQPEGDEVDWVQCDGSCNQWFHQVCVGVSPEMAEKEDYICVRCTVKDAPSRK

[2] = AlphaScreen counterscreen against bio-H3K4me2 peptide in the absence of enzyme (artifact signal); conditions: for Artifact Signal (percent): effect of the compound when incubated with bio-H3K4me2 peptide (counterscreen, no enzyme);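 as to all read-outs here: counterscreen run without enzyme against bio-H3K4me2 peptide to remove false positive hits from the JARID1 demethylase AlphaScreen screen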
[3] = high-throughput screen, compound 20 μM, standard demethylase conditions (10 μM α-KG, 50 μM Fe (II))
[4] = validation of HTS actives, total signal before subtraction of artifact signal
[5] = counterscreen, bio-H3K4me2 peptide, no enzyme
[6] = high-throughput screen, compound 20 μM, IDs marked *: additional hits under reaction condition with 1 mM α-KG

Row | SMILES | inhibition at 20 µM [1, 3] [%] | Validation result of HTS active: effect of the compound in the JARID1B AlphaScreen demethylase assay [1, 4] | Artifact signal: effect of the compound when it is incubated with bio-H3K4me2 peptide [2, 5] | Assay − Artifact Signal (percent) [1] [%] | Assay Signal (percent) ([1]; validation of HTS actives) [%] | Artifact Signal (percent) [2] [%] | also measured
1 | O=C(O)c1cc(O)c2c(c1)[C@H]([C@H]1c3cc(C(=O)O)cc(O)c3C(=O)c3c(O[C@@H]4O[C@H](CO)[C@H](O)[C@H](O)[C@H]4O)cccc31)c1cccc(O[C@@H]3O[C@H](CO)[C@H](O)[C@H](O)[C@@H]3O)c1C2=O (stereo in doubt) [YU155305, SENNOSIDE B, reference compound] | 105 | 4.04 | −0.34 | – | – | – | –
2 | O=C(O)CC(CC(=O)Nc1cc(C(F)(F)F)ccc1N1CCOCC1)c1ccccc1 (stereo not shown) [YU016748] | 104 | – | – | 8.43 | 19.64 | 11.20 | –
3 | NS(=O)(=O)c1cccc(NC(=O)c2cccnc2Oc2ccccc2)c1 [YU016812] | 34.2 | 10.22 | 13.27 | – | – | – | –
4 | O=C1c2ccccc2C(=O)c2c(NCCc3ccc(O)cc3)ccc(NCCc3ccc(O)cc3)c21 [YU019467, BML-266, reference compound] | – | – | – | 20.91 | 76.09 | 55.18 | inhibition at 20 µM [1, 6]: 42.1%
5 | CC(C)=CCc1c2c(c3occ(-c4ccc(O)c(O)c4)c(=O)c3c1O)C=CC(C)(C)O2 [YU033628, POMIFERIN, reference compound] | – | 6.60 | 13.55 | – | – | – | Inhibitory effect (percent) [1, 3]: 68.25%
6 | Oc1cc(O)c2c(c1)O[C@H](c1ccc(O)c(O)c1)[C@@H](O)C2 [YU033631, CIANIDANOL, reference compound] | – | – | – | 26.12 | 30.96 | 4.84 | inhibition at 20 µM [1, 6]: 41.5%
7 | C[C@@H]1O[C@@H](OC[C@H]2OC(OC3=C(c4ccc(O)c(O)c4)Oc4cc(O)cc(O)c4C3O)[C@H](O)[C@@H](O)[C@@H]2O)[C@H](O)[C@H](O)[C@H]1O (stereo partly shown) [YU033654, RUTOSIDE (rutin), reference compound] | 65.8 | – | – | 52.71 | 58.08 | 5.37 | –
8 | C[n+]1cc2c3c(ccc2c2ccc4cc5c(cc4c21)OCO5)OCO3 [YU033662, SANGUINARINE SULFATE, reference compound] | – | – | – | 58.64 | 67.85 | 9.21 | Inhibitory effect (percent) [1, 3]: 86.66%
9 | O=C1c2c(O)cccc2Cc2cccc(O)c21 [YU033694, ANTHRALIN, reference compound] | – | – | – | 13.30 | 22.65 | 9.35 | inhibition at 20 µM [1, 6]: 51.7%
10 | CN1CCc2cccc3c2C1Cc1ccc(O)c(O)c1-3 (stereo not shown) [YU033696, APOMORPHINE HYDROCHLORIDE, reference compound] | 89.4 | – | – | 58.49 | 66.78 | 8.29 | –
11 | Cn1cnc([N+](=O)[O-])c1Sc1[nH]cnc2ncnc1-2 [YU033698, AZATHIOPRINE, reference compound] | 88.8 | 10.40 | 5.31 | – | – | – | –
12 | NC(CO)C(=O)NNCc1ccc(O)c(O)c1O (stereo not shown) [YU033702, BENSERAZIDE HYDROCHLORIDE, reference compound] | 70.6 | – | – | 52.50 | 73.96 | 21.46 | –
13 | Oc1c(Cl)cc(Cl)cc1Sc1cc(Cl)cc(Cl)c1O [YU033712, BITHIONOL, reference compound] | – | 0.82 | −3.70 | – | – | – | inhibition at 20 µM [1, 6]: 47.6%
14 | N=C(NCCCCCCNC(=N)NC(=N)Nc1ccc(Cl)cc1)NC(=N)Nc1ccc(Cl)cc1 [YU033734, CHLORHEXIDINE, reference compound] | 41 | −1.12 | 1.97 | – | – | – | –
15 | CN(C)[C@@H]1C(O)=C(C(N)=O)C(=O)[C@@]2(O)C(O)=C3C(=O)c4c(O)ccc(Cl)c4[C@@](C)(O)[C@H]3C[C@@H]12 [YU033743, AUREOMYCIN, reference compound] | – | – | – | 27.81 | 28.24 | 0.43 | inhibition at 20 µM [1, 6]: 90%
16 | CCN(CC)CCOc1ccc(/C(=C(\Cl)c2ccccc2)c2ccccc2)cc1 [YU033752, CLOMIPHENE CITRATE, reference compound] | 47 | – | – | 15.81 | 16.67 | 0.86 | –
17 | [O-][n+]1ccccc1[S-].[O-][n+]1ccccc1[S-].[Zn+2] [YU033800, PYRITHIONE ZINC, reference compound] | – | – | – | – | – | – | Inhibitory effect (percent) [1]: 99.02%; Validation effect minus artifact signal [1]: 1.60; Validation result of HTS active: effect of the compound in the JARID1B AlphaScreen demethylase assay [1]: −18.35; Artifact signal: effect of the compound when it is incubated with bio-H3K4me2 peptide [2]: −19.95
18 | NCCc1ccc(O)c(O)c1 [YU033802, DOPAMINE HYDROCHLORIDE, reference compound] | 51.3 | −1.42 | −2.83 | 32.68 | 42.68 | 10.00 | Inhibitory effect (percent) ([1]; high-throughput screen, compound 20 μM, standard demethylase conditions (10 μM α-KG, 50 μM Fe (II)), HYDROCHLORIDE): 46.86%
19 | CNC[C@H](O)c1ccc(O)c(O)c1 [YU033809, ADRENALINE BITARTRATE, reference compound] | 56.3 | – | – | 47.54 | 40.90 | −6.64 | –
20 | CN(C)c1ccc(C(=C2C=CC(=[N+](C)C)C=C2)c2ccc(N(C)C)cc2)cc1 [YU033841, GENTIAN VIOLET, reference compound] | 106 | 96.28 | 93.38 | – | – | – | –
21 | NC(=O)NO [YU033863, HYDROXYUREA, reference compound] | – | – | – | 21.20 | 13.20 | −8.00 | Inhibitory effect (percent) [1, 6]: 43.49%
22 | NNC(=O)c1ccncc1 [YU033872, ISONIAZID, reference compound] | 54.5 | – | – | 51.63 | 45.10 | −6.34 | –
23 | CC(C)NCC(O)c1ccc(O)c(O)c1 (stereo not shown) [YU033874, ISOPROTERENOL HYDROCHLORIDE, reference compound] | 47.7 | – | – | 35.20 | 32.81 | −2.38 | –
24 | S=c1[nH]cnc2nc[nH]c12 [YU033892, MERCAPTOPURINE, reference compound] | – | – | – | 35.94 | 33.79 | −2.15 | inhibition at 20 µM [1, 6]: 56%
25 | COc1ccccc1OCC(O)COC(N)=O (stereo not shown) [YU033898, METHOCARBAMOL, reference compound] | 93.2 | 0.74 | 18.66 | – | – | – | –
26 | C[C@](N)(Cc1ccc(O)c(O)c1)C(=O)O [YU033903, METHYLDOPA, reference compound] | 69.1 | – | – | 30.75 | 50.21 | −0.54 | –
27 | NC[C@H](O)c1ccc(O)c(O)c1 [YU033927, NOREPINEPHRINE, reference compound] | 58.5 | – | – | 37.97 | 39.80 | 1.83 | –

— patent US20150272939A1, “Identification of Small Molecule Inhibitors of Jumonji AT-Rich Interactive Domain 1A (JARID1A) and 1B (JARID1B) Histone Demethylase” (Yale University, priority 2012, published 2015)
